System: HT-29 cells
Experiment: Comet assay (single cell gel electrophoresis), genotoxic potential
Format: cell-based, Human
Conditions: concentration corresponding to quercetin 70 µM

In the case of `O=c1c(O)c(-c2ccc(O)c(O)c2)oc2cc(O)cc(O)c12` [quercetin], the “genotoxic effect / DNA integrity” value is reported as “genotoxic effect”.
